Measured values reported in US8637531B2, “Pyrido(3,2-d)pyridmidines useful for treating viral infections” (Gilead Sciences, Inc., priority 2006, dated 2014).

What was measured:
[1] = test system: HCV replicon; test: Anti-HCV replicon assay (EC50, luciferase); assay type: cell-based; details: Hepatitis C virus, 72 h; human hepatoma Huh-7 cell line harbouring a HCV replicon, 3 days incubation, luciferase luminescence
Procedure: (§1) The anti-HCV activity of the pyrido[3,2-d]pyrimidine derivatives of this invention was tested in a human hepatoma Huh-7 cell line harbouring a HCV replicon. The assay comprised the following steps:
(§2) Step 1: Compound Preparation and Serial Dilution
(§3) • 1. for water soluble pyrido[3,2-d]pyrimidine derivatives, a volume of 500 μL of solution in cell media (DMEM, 10% FBS, P/S, L-Glutamine) was prepared with a concentration being twice the concentration of the starting final serial dilution concentration. A volume of 150 μL of the solution was added to the pre-specified wells in column 1 of a 96-well cell culture plate (PerkinElmer, white plate, cat. #6005181, for EC50 assay; black plate, cat. #6005182 for CC50 assay). The rest of the plate, columns 2-12, was filled with 100 μL of cell media. The plate was then placed on a Precision 2000 Workstation to start the serial dilution. Compounds were diluted three times each step from column 1 to column 10. Column 11 was used as a blank control (no compound added). • 2. for pyrido[3,2-d]pyrimidine derivatives requiring DMSO to dissolve, serial dilution is performed in 50% DMSO in a 384-well plate. A solution containing a compound at 100-fold concentration of the starting final serial dilution concentration was prepared in 50% DMSO and added to the pre-specified wells in column 1 of a polypropylene 384-well plate. The plate was then placed on a Precision 2000 Workstation to start the serial dilution. After the serial dilution, a volume of 2 μL of the solution was transferred from the 384-well plate to a 96-well cell culture plate containing 100 μL of cell media on a Biomek FX Workstation. The DMSO concentration in the final assay condition was 0.5% after cells are added to the plate and the total volume in each well is brought to 200 μL. Step 2: to each well of the serial dilution plate prepared above, 100 μL of cell media containing 6000 suspended Huh-7 HCV replicon cells was added with a Multidrop workstation. The plates were incubated for 3 days at 37° C. with 5% CO2. Step 3: Detection: • a) for the EC50 assay, the media in a 96-well cell culture plate was aspirated with a Biotek EL405 plate-washer. A volume of 200 μL of a solution containing a 1:1 mixture of cell-lysis buffer (Promega, Luciferase Cell Culture Lysis 5× Reagent, cat. #E1531) and luciferase substrate solution (Promega, Luciferase Assay, cat. # E4550) was added to each well of the plate with Multidrop. The plate was incubated for 30 minutes at room temperature before the luminescence signal was measured with a TopCount plate-reader. • b) for the CC50 assay, a volume of 100 μL of pre-mixed CellTiter-Glo (Promega, cat. # G7572) solution is added directly to the cell culture in each well of the plate and the luminescence signal is measured with a TopCount plate-reader after 10 minutes of incubation at room temperature.
Results in table 13 are expressed by the following data: • the 50% effective concentration (EC50), i.e. the concentration that protects 50% of the cell monolayer from virus-induced cytopathic effect, and […]

[2] = CC50 assay in Huh-7 HCV replicon cells (CellTiter-Glo); assay type: cell-based; details: human, 3 days incubation, CellTiter-Glo luminescence
Procedure: as §1, §2, §3
the 50% cytostatic concentration (CC50), i.e. the concentration that results in 50% inhibition of cell growth.

| SMILES | EC50 [1] [nM] | CC50 at 3 days [2] [nM] | melting point [°C] |
| --- | --- | --- | --- |
| Nc1nc(OCC2CCCC2)c2nc(-c3ccc(F)cc3)ccc2n1 [Example 10, 2-amino-4-(cyclopentylmethoxy)-6-(4-fluorophenyl)pyrido(3,2-d)pyrimidine] | 300 to 1000 | > 20000 | – |
| CCOCCOc1nc(N)nc2ccc(-c3ccc(F)cc3)nc12 [Example 24, 4-(2-ethoxy-ethoxy)-6-(4-fluoro-phenyl)-pyrido[3,2-d]pyrimidin-2-ylamine] | < 300 | > 20000 | – |
| Nc1nc(OCC2CCCCO2)c2nc(-c3ccc(F)cc3)ccc2n1 (stereo not drawn) [Example 34, 2-amino-4-(tetrahydropyran-2-methoxy)-6-(4-fluorophenyl)-pyrido(3,2-d)pyrimidine] | 300 to 1000 | 10000 to 20000 | 202 |
| CSCCOc1nc(N)nc2ccc(-c3ccc(F)cc3)nc12 [Example 8, 2-amino-4-[2-(methylthio)ethoxy]-6-(4-fluorophenyl)pyrido(3,2-d)pyrimidine] | < 300 | > 20000 | – |
| CC(C)OCCOc1nc(N)nc2ccc(-c3ccc(F)cc3)nc12 [Example 6, 2-amino-4-(2-isopropoxyethoxy)-6-(4-fluorophenyl)pyrido(3,2-d)pyrimidine] | < 300 | > 20000 | – |
| Nc1nc(OC2CO[C@H]3OCC[C@@H]23)c2nc(-c3ccc(F)cc3)ccc2n1 (stereo partly drawn) [Example 18, 2-amino-4-[hexahydro-furo(2,3-b)furan-3-oxy]-6-(4-fluorophenyl)-pyrido(3,2-d) pyrimidine] | < 300 | > 20000 | – |
| COC(C)(C)CCOc1nc(N)nc2ccc(-c3ccc(F)cc3)nc12 [Example 12, 2-amino-4-(3-methyl-3-methoxybutoxy)-6-(4-fluorophenyl)pyrido(3,2-d) pyrimidine] | < 300 | > 20000 | – |
| COC[C@H](C)Oc1nc(N)nc2ccc(-c3ccc(F)cc3)nc12 [Example 37, 2-amino-4-[(S)-1-methoxy-2-propoxy]-6-(4-fluorophenyl)-pyrido(3,2-d)pyrimidine] | < 300 | > 20000 | – |
| Nc1nc(O[C@H]2CCOC2)c2nc(-c3ccc(F)cc3)ccc2n1 [Example 16, 2-amino-4-[3(S)-tetrahydrofuranyloxy]-6-(4-fluorophenyl)-pyrido(3,2-d)pyrimidine] | < 300 | > 20000 | – |
| Nc1nc(OC2CCCCC2)c2nc(-c3ccc(F)cc3)ccc2n1 [Example 32, 2-amino-4-cyclohexyloxy-6-(4-fluorophenyl)-pyrido(3,2-d)pyrimidine] | 300 to 1000 | < 10000 | 180 |
| Nc1nc(OC2CCCC2)c2nc(-c3ccc(F)cc3)ccc2n1 [Example 11, 2-amino-4-(cyclopentoxy)-6-(4-fluorophenyl)pyrido(3,2-d)pyrimidine] | < 300 | > 20000 | – |
| COCCOc1nc(N)nc2ccc(-c3ccc(F)cc3)nc12 [Example 23, 6-(4-fluoro-phenyl)-4-(2-methoxy-ethoxy)-pyrido[3,2-d]pyrimidin-2-ylamine] | < 300 | > 20000 | – |
| Nc1nc(OC2CCOCC2)c2nc(-c3ccc(F)cc3)ccc2n1 [Example 33, 2-amino-4-(tetrahydro-2H-pyran-4-oxy)-6-(4-fluorophenyl)-pyrido(3,2-d)pyrimidine] | < 300 | 10000 to 20000 | – |
| Nc1nc(OCC2CCOC2)c2nc(-c3ccc(F)cc3)ccc2n1 (stereo not drawn) [Example 36, 2-amino-4-(tetrahydro-3-furanmethoxy)-6-(4-fluorophenyl)-pyrido(3,2-d)pyrimidine] | < 300 | 10000 to 20000 | 219 |
| Nc1nc(OCC2CCCO2)c2nc(-c3ccc(F)cc3)ccc2n1 (stereo not drawn) [Example 35, 2-amino-4-(tetrahydro-2-furanmethoxy)-6-(4-fluorophenyl)-pyrido(3,2-d)pyrimidine] | 300 to 1000 | 10000 to 20000 | 193 |
| Nc1nc(OCCN2CCOCC2)c2nc(-c3ccc(F)cc3)ccc2n1 [Example 21, 6-(4-fluoro-phenyl)-4-(2-morpholin-4-yl-ethoxy)-pyrido[3,2-d]pyrimidin-2-ylamine] | 300 to 1000 | > 20000 | – |
| Nc1nc(O[C@@H]2CCOC2)c2nc(-c3ccc(F)cc3)ccc2n1 [Example 17, 2-amino-4-[3(R)-tetrahydrofuranyloxy]-6-(4-fluorophenyl)-pyrido(3,2-d) pyrimidine] | < 300 | > 20000 | – |
| C=CC(C)(C)Oc1nc(N)nc2ccc(-c3ccc(F)cc3)nc12 [Example 13, 2-amino-4-(2-methyl-3-buten-2-oxy)-6-(4-fluorophenyl)pyrido(3,2-d)pyrimidine] | > 1000 | > 20000 | – |
| CC#CCCOc1nc(N)nc2ccc(-c3ccc(F)cc3)nc12 [Example 14, 2-amino-4-(3-pentyn-1-oxy)-6-(4-fluorophenyl)pyrido(3,2-d)pyrimidine] | > 1000 | > 20000 | – |
| CS(=O)(=O)CCOc1nc(N)nc2ccc(-c3ccc(F)cc3)nc12 [Example 19, 2-amino-4-[2-(methylsulfonyl)ethoxy]-6-(4-fluorophenyl)-pyrido(3,2-d) pyrimidine] | < 300 | > 20000 | – |
| Nc1nc(OCC2CC2)c2nc(-c3ccc(F)cc3)ccc2n1 [Example 22, 4-cyclopropylmethoxy-6-(4-fluoro-phenyl)-pyrido[3,2-d]pyrimidin-2-ylamine] | < 300 | > 20000 | – |
| Nc1nc(OCC(F)F)c2nc(-c3ccc(F)cc3)ccc2n1 [Example 7, 2-amino-4-(2,2-difluoroethoxy)-6-(4-fluorophenyl)pyrido(3,2-d)pyrimidine] | < 300 | > 20000 | – |
| COC[C@@H](C)Oc1nc(N)nc2ccc(-c3ccc(F)cc3)nc12 [Example 38, 2-amino-4-[(R)-1-methoxy-2-propoxy]-6-(4-fluorophenyl)-pyrido(3,2-d)pyrimidine] | < 300 | 10000 to 20000 | – |
| CCC(CC)Oc1nc(N)nc2ccc(-c3ccc(F)cc3)nc12 [Example 20, 4-(1-ethyl-propoxy)-6-(4-fluoro-phenyl)-pyrido[3,2-d]pyrimidin-2-ylamine] | < 300 | < 10000 | – |
| CCCCOCCOc1nc(N)nc2ccc(-c3ccc(F)cc3)nc12 [Example 4, 2-amino-4-(2-butoxyethoxy)-6-(4-fluorophenyl)pyrido(3,2-d)pyrimidine] | > 1000 | > 20000 | – |
| CCCOCCOc1nc(N)nc2ccc(-c3ccc(F)cc3)nc12 [Example 3, 2-amino-4-(2-propoxyethoxy)-6-(4-fluorophenyl)pyrido(3,2-d)pyrimidine] | 300 to 1000 | > 20000 | – |
| Nc1nc(OC2CCC2)c2nc(-c3ccc(F)cc3)ccc2n1 [Example 9, 2-amino-4-(cyclobutoxy)-6-(4-fluorophenyl)pyrido(3,2-d)pyrimidine] | < 300 | > 20000 | – |
| CCOC(C)COc1nc(N)nc2ccc(-c3ccc(F)cc3)nc12 (stereo not drawn) [Example 5, 2-amino-4-(2-ethoxy-1-propoxy)-6-(4-fluorophenyl)pyrido(3,2-d)pyri-midine] | < 300 | > 20000 | – |
